Data: patent US12473283B2, “Compounds and their use” (Debiopharm International S.A., priority 2019, dated 2025)
pIC50: −log10 of the molar value. In brackets after ≈: the same amount, converted by molar mass. Where two headings read alike, the source gives them in different places.

Experiments:
[1] = system: Acinetobacter baumannii ATCC 17978; test: Mouse thigh infection model; format: in vivo, BALB/c mice; details: for Mean Change log CFU/g thigh 72 hr / Mean Change log CFU/g thigh 24 hr: vs. time 0 control; for Mean Log CFU/g thigh 72 hr: 72 hr treatment; for Mean Log CFU/g thigh 24 hr: 24 hr treatment; for efficacy in words, thigh model summary: 24 hr and 72 hr treatment
Method: (§1) Groups of 5 female specific-pathogen-free BALB/c mice weighing 18±2 g were used. In the 24 hr model (bacterial counts determined 24 hr after treatment start), mice were rendered neutropenic with cyclophosphamide intraperitoneal (IP) administration conducted at Days −4 (150 mg/kg), and day −1 (100 mg/kg). In the 72 hr model (bacterial counts determined 72 hr after treatment start), animals were rendered persistently neutropenic for the duration of the infection period with cyclophosphamide intraperitoneal (IP) administration conducted at Days −4 (150 mg/kg), −1 (100 mg/kg) and +1 (100 mg/kg). Persistent neutropenia is required to prevent pathogen clearance from thigh tissue in the 74 hr model. Nutritional supplementation (diet gel) plus saline SC injections were provided daily to help animals tolerate the cyclophosphamide treatment.
(§2) On day 0, animals were inoculated intramuscularly (0.1 ml/thigh) with a 1.67×10^4 inoculum count of Acinetobacter baumannii ATCC 17978. Vehicle control (40% Captisol), positive control (tigecycline) or test substances were then administered 2 hr post infection by the subcutaneous (SC) route of administration. Each dosing group consisted of 5 female mice. The MICs of the compounds against the test strain were 8 μg/ml, 2 μg/ml and […] for compound 201, compound 71 and compound 200, respectively. At 26 or 74 hours after inoculation (24 or 72 hr after treatment initiation), animals were euthanized with CO2 asphyxiation and the thigh tissue harvested from each of the test animals. The tissues were homogenized in 3 mL of PBS, pH 7.4 with a homogenizer. Homogenates, 0.1 mL, were used for serial 10-fold dilutions and plated onto NB agar for colony counts. Efficacy is calculated as the change in log CFU/g thigh vs. the time 0 (treatment initiation) control.

[2] = system: Acinetobacter baumannii ATCC 17978; test: MIC against the in vivo test strain; format: cell-based; details: A. baumannii ATCC 17978; for MIC: Acinetobacter baumannii, ATCC17978
Method: The antibacterial activity of FabI inhibitors against select Gram-negative and Gram-positive bacterial species including susceptible and multi-drug resistant A. baumannii, E. coli, K. pneumoniae and S. aureus was tested using the broth microdilution Minimal Inhibitory Concentration (MIC) assay following CLSI guidelines for insoluble compounds. Test articles were serially diluted 2-fold in 100% dimethyl sulfoxide (DMSO) and then diluted 100-fold into cation adjusted Mueller-Hinton broth (CA-MHB) to achieve a 10-point test concentration range in 1% DMSO. Final compound concentrations were 0.016-8 μg/ml for S. aureus or 0.06-32 μg/ml for the Gram-negative species. MIC test plates were then prepared by transferring 100 μl of the final assay medium (test article in CA-MHB, 1% DMSO) into the appropriate wells of a sterile, low binding 96-well polystyrene plate. Direct colony suspension inoculums of the test strains were freshly prepared per CLSI guidelines, and the appropriate test wells were inoculated to achieve a final bacterial cell density of 5×10^5 CFU/ml. Growth control (no test article) and negative control (no bacterial inoculum) wells were also included. Exposure to light was minimized during all stages of assay preparation. […] Bacterial growth was then determined by measuring the optical density at 600 nm (OD600) using a SpectraMax Plus plate-reader spectrophotometer.
as §2
On day 0, animals were anesthetized with etomidate-lipuro emulsion (20 mg/10 mL; 20 mg/kg dose, IV) and then inoculated intranasally with an A. baumannil ATCC 17978 suspension, 1.36×10^5 CFU/mouse, 0.02 mL/mouse. […] Efficacy is calculated as the change in log CFU/g thigh vs. the time 0 (treatment initiation) control.

E. coli AG100 = test: Broth microdilution MIC assay; format: cell-based; details: Escherichia coli, CA-MHB, 35° C., 20 hours
[3] = system: A. baumannii ATCC BAA1605; test: Broth microdilution MIC assay; format: cell-based; details: Acinetobacter baumannii, ATCCBAA1605; CA-MHB, 35° C., 20 hours
S. aureus ATCC 29213 = test: Broth microdilution MIC assay; format: cell-based; details: Staphylococcus aureus, ATCC29213; CA-MHB, 35° C., 20 hours
K. pneumoniae A6030827 = test: Broth microdilution MIC assay; format: cell-based; details: Klebsiella pneumoniae, CA-MHB, 35° C., 20 hours
[4] = target: FabI enzyme from Acinetobacter baumannii (Acinetobacter baumannii, UniProt D0CAD5); test: Inhibition of FabI enzyme, rate of NADH consumption; format: biochemical
FabI enzyme from Acinetobacter baumannii, sequence (D0CAD5 entry or part of it): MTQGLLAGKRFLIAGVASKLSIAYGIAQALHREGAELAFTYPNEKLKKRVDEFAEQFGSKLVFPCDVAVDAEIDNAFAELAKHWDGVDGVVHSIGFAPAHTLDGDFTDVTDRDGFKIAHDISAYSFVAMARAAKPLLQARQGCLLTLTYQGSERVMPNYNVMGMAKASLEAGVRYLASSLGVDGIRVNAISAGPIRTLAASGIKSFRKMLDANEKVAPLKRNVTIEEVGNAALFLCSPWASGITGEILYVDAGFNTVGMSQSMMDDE

A. baumannil ATCC 17978 = test: Mouse lung infection model; format: in vivo, BALB/c mice; details: for Mean change log CFU/g lung 24 hr / Mean change log CFU/g lung 72 hr: vs. time 0 control; for Mean Log CFU/g lung 24 hr: 24 hr treatment; for Mean Log CFU/g lung 72 hr: 72 hr treatment
Method: as §1, with “lung” for “thigh”
On day 0, animals were anesthetized with etomidate-lipuro emulsion (20 mg/10 mL; 20 mg/kg dose, IV) and then inoculated intranasally with an A. baumannil ATCC 17978 suspension, 1.36×10^5 CFU/mouse, 0.02 mL/mouse. Vehicle control (40% Captisol), positive control (tigecycline) or test substances were then administered 2 hr post infection by the subcutaneous (SC) route of administration. Each dosing group consisted of 5 female mice. The MICs of the compounds against the test strain were 8 μg/ml and 0.5 μg/ml for compound 201 and compound 200, respectively. At 26 or 74 hours after inoculation (24 or 72 hr after treatment initiation), animals were euthanized with CO2 asphyxiation and the lung tissue harvested from each of the test animals. The tissues were homogenized in 1 ml of PBS, pH 7.4 with a homogenizer. Homogenates, 0.1 mL, were used for serial 10-fold dilutions and plated onto MacConkey II agar for colony counts. Efficacy is calculated as the change in log CFU/g […] vs. the time 0 (treatment initiation) control.

[5] = 25 mg/kg q6h SC, total daily dose 100 mg/kg
[6] = 50 mg/kg q6h SC, total daily dose 200 mg/kg
[7] = following both 24 hr and 72 hr treatment, SC

Row | SMILES | Mean Change log CFU/g thigh 72 hr ([1]; 25 mg/kg q6h SC) [log CFU/g thigh] | Mean Log CFU/g thigh 72 hr [1, 5] [log CFU/g thigh] | Mean Change log CFU/g thigh 24 hr ([1]; 50 mg/kg q6h SC) [log CFU/g thigh] | Mean Change log CFU/g thigh 72 hr ([1]; 50 mg/kg q6h SC) [log CFU/g thigh] | Mean Log CFU/g thigh 24 hr [1, 6] [log CFU/g thigh] | Mean Log CFU/g thigh 72 hr [1, 6] [log CFU/g thigh] | efficacy in words, thigh model summary ([1]; SC) | MIC [2] [µg/mL] | MIC (E. coli AG100) [µg/mL] | MIC [3] [µg/mL] | MIC (S. aureus ATCC 29213) [µg/mL] | Mean change log CFU/g lung 24 hr (A. baumannil ATCC 17978; 25 mg/kg q6h SC) [log CFU/g lung] | Mean change log CFU/g lung 72 hr (A. baumannil ATCC 17978; 25 mg/kg q6h SC) [log CFU/g lung] | Mean Log CFU/g lung 24 hr (A. baumannil ATCC 17978; [5]) [log CFU/g lung] | Mean Log CFU/g lung 72 hr (A. baumannil ATCC 17978; [5]) [log CFU/g lung] | Mean change log CFU/g lung 24 hr (A. baumannil ATCC 17978; 50 mg/kg q6h SC) [log CFU/g lung] | Mean change log CFU/g lung 72 hr (A. baumannil ATCC 17978; 50 mg/kg q6h SC) [log CFU/g lung] | Mean Log CFU/g lung 24 hr (A. baumannil ATCC 17978; [6]) [log CFU/g lung] | Mean Log CFU/g lung 72 hr (A. baumannil ATCC 17978; [6]) [log CFU/g lung] | also measured
1 | Cc1c(CN(C)C(=O)/C=C/c2cnc3c(c2)CC[C@H](N)C(=O)N3)oc2ccccc12.Cl (single isomer, unassigned) [Compound 71] | 2.25 | 7.09 | 0.60 | 1.10 | 5.45 | 5.95 | very slight efficacy | 2 | ≤ 4 | ≤ 4 | ≤ 4 |  |  |  |  |  |  |  |  | MIC (K. pneumoniae A6030827): ≤ 4 µg/mL
2 | Cc1oc2ccccc2c1CN(C)C(=O)/C=C/c1cnc2c(c1)CC[C@H](N)C(=O)N2 [Compound 200, (S,E)-3-(7-amino-8-oxo-6,7,8,9-tetrahydro-5H-pyrido[2,3-b]azepin-3-yl)-N-methyl-N-((2-methylbenzofuran-3-yl)methyl)acrylamide] | −2.27 | 2.58 | −2.53 | −2.14 | 2.31 | 2.71 |  | 0.5 (≈ 1.24 µM) | ≤ 4 | ≤ 4 | ≤ 4 | −2.44 | −2.21 | 3.86 | 4.09 | −3.50 | −3.39 | 2.80 | 2.91 | pIC50 ([4]; recombinant FabI, 30° C., pH 7.25, read-out: A. baumannii Fabl IC50): > 8.00; efficacy (log kill), thigh model [1, 7]: 2.1-2.4 log kill; efficacy (log kill), lung model (A. baumannil ATCC 17978; [7]): 2.5-3.5 log kill; MIC against the test strain [2]: 0.5 µg/mL (≈ 1.24 µM)
3 | Cc1c(CN(C)C(=O)/C=C/c2cnc3c(c2)CC(N)C(=O)N3)oc2ccccc12.Cl (stereo not drawn) [Compound 201, (E)-3-(6-amino-7-oxo-5,6,7,8-tetrahydro-1,8-naphthyridin-3-yl)-N-methyl-N-((3-methylbenzofuran-2-yl)methyl)acrylamide hydrochloride, reference compound] | 2.24 | 7.09 | 2.26 | 1.86 | 7.11 | 6.70 | no efficacy | 8 | 8 | 16 |  | 1.02 | 0.21 | 7.32 | 6.51 | 0.26 | −0.35 | 6.56 | 5.95 | pIC50 [4]: 7.72; efficacy in words, lung model summary (A. baumannil ATCC 17978; SC, 24 hr and 72 hr treatment): very slight efficacy
